How the values were obtained:
Type in all cases: functional
[1] = system: Staphylococcus aureus; experiment: Tested for zone of inhibition against Staphylococcus aureus UC3665 (1 mg/mL, 80 microL/12.7 mm)
[2] = system: Staphylococcus epidermidis; experiment: Tested for zone of inhibition against Staphylococcus epidermidis UC719 (1 mg/mL, 80 microL/6.5 mm)
[3] = system: Staphylococcus aureus; experiment: The compound (1 mg/mL, 80 microL/6.5 mm) was tested for zone of inhibition against Staphylococcus aureus UC6685 (38H -, H: Hazy zone)
[4] = system: Clostridium perfringens; experiment: Tested for zone of inhibition against Clostridium perfringens UC6509
[5] = system: Staphylococcus aureus; experiment: Tested for zone of inhibition against Staphylococcus aureus UC6685 (1 mg/mL, 80 microL/6.5 mm)
[6] = system: Bacteroides fragilis; experiment: Tested for zone of inhibition against Bacteroides fragilis UC6513 (1 mg/mL, 80 microL/12.7 mm)
[7] = system: Clostridium perfringens; experiment: The compound (1 mg/mL, 80 microL/12.7 mm) was tested for zone of inhibition against Clostridium perfringens UC6509 (22H -, H: Hazy zone)

SMILES	Diameter of inhibition zone [1]	Diameter of inhibition zone [2]	Diameter of inhibition zone [3]	Diameter of inhibition zone [4]	Diameter of inhibition zone [5]	Diameter of inhibition zone [6]	Diameter of inhibition zone [7]
CCCCCC(=O)N1C[C@H]([C@H](C)CF)C1=O	48 mm	31 mm	38 mm	79 mm	–	–	–
CC(=O)OC/C(C)=C1\CN(C(C)=O)C1=O	0 mm	0 mm	–	–	0 mm	22 mm	22 mm

From ChEMBL document CHEMBL1150488 (1993)
